Source: ChEMBL document CHEMBL1201862, “PubChem BioAssay data set” (2004)
The source made the active and inactive calls.

Legend:
Paired box protein Pax-8 = Paired box protein Pax-8 (Homo sapiens, UniProt Q06710); assay: PAX8 transcriptional activity inhibition in RMG-I – RMG-I cells, luciferase, cherry-pick, dose response (AID 687027); assay type: functional, cell-based;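 note: luciferase reporter driven by Pax8 target thyroperoxidase promoter measured by SteadyGlo luminescence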
[1] = A549 cell cytotoxicity, dose response, cytotoxicity control, plate reader, cherry-pick, antagonist series (AID 743412); assay type: functional, cell-based
[2] = toxicity toward HepG2 liver cells – cell-based, plate reader, cherry-pick, antagonist series, cytotoxicity control, dose response (AID 743416); assay type: functional
[3] = blockers of bursicon-stimulated LGR2 cAMP reporter – cell-based, HEK293, CRE-luciferase reporter, cherry pick, set 2, dose response (AID 743343); assay type: functional;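 note: transfected cells were stimulated with diluted bursicon conditioned medium after compound addition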
[4] = general cell-killing toxicity readout – plate reader, dry powder samples, cytotoxicity control for PAX8 inhibitor project, dose response (AID 743021); assay type: functional, cell-based
[5] = blockade of melanocortin 4 receptor signaling – cell-based, plate reader, cherry pick, counter-screen for LGR2 antagonist project, dose response (AID 743444); assay type: functional;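 note: transfected HEK 293 cells stimulated with alpha-MSH peptide; potency of inhibitors of the alpha-MSH evoked signal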
[6] = viability loss in HEK293 cells – cell-based, plate reader, cherry-picked samples, cytotoxicity control, dose response (AID 743446); assay type: functional
[7] = biological target: Luciferin 4-monooxygenase (Photinus pyralis, UniProt P08659); assay: inhibition of purified Photinus pyralis luciferase – biochemical, luminescence, dose response (AID 1891)
Luciferin 4-monooxygenase, sequence (P08659 whole entry): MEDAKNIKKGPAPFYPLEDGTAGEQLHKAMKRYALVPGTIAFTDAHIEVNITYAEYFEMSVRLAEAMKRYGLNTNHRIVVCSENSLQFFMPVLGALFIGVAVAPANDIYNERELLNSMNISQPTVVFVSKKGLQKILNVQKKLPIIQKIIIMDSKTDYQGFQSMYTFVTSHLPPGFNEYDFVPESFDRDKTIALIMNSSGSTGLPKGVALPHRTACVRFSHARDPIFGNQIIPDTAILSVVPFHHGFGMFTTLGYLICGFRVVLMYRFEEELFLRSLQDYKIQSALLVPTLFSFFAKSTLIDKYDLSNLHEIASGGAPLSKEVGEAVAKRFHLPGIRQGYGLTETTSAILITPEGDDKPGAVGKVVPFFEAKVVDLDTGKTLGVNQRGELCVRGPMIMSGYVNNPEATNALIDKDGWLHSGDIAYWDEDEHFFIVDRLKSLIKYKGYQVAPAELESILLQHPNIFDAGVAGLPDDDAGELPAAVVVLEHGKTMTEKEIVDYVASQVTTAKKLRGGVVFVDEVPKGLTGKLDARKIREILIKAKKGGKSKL

[8] = Luminescence Cell-Based Dose Confirmation HTS to Identify Inhibitors of Platelet Dense Granule Release. [Related pubchem assays: 1663 (Primary HTS), 1678 (Summary of Project)]; assay type: functional
[9] = biological target: T1, Mannose-6-phosphate isomerase (Homo sapiens, UniProt P34949); assay: MPI inhibition at elevated mannose 6-phosphate – biochemical, fluorescence intensity, high mannose 6-phosphate, primary screen (AID 1220)
T1 sequence (P34949 whole entry): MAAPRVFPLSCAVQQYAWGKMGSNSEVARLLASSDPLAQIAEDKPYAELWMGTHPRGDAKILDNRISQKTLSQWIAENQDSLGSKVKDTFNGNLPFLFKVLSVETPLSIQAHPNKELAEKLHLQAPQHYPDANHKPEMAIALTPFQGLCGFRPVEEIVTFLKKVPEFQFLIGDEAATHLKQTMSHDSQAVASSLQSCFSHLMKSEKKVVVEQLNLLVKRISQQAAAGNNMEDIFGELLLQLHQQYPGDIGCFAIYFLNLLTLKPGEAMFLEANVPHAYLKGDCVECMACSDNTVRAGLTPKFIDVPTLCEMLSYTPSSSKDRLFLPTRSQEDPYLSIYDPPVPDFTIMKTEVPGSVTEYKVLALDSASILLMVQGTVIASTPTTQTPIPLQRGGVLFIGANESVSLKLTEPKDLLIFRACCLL

[10] = biological target: Glucose-6-phosphate 1-dehydrogenase (Homo sapiens, UniProt P11413); assay: inhibition of Homo sapiens G6PD, dose series – biochemical, fluorescence, selectivity assay for P. falciparum G6PD inhibitor project, dose response (AID 504792); assay type: functional
Glucose-6-phosphate 1-dehydrogenase, sequence (P11413 whole entry): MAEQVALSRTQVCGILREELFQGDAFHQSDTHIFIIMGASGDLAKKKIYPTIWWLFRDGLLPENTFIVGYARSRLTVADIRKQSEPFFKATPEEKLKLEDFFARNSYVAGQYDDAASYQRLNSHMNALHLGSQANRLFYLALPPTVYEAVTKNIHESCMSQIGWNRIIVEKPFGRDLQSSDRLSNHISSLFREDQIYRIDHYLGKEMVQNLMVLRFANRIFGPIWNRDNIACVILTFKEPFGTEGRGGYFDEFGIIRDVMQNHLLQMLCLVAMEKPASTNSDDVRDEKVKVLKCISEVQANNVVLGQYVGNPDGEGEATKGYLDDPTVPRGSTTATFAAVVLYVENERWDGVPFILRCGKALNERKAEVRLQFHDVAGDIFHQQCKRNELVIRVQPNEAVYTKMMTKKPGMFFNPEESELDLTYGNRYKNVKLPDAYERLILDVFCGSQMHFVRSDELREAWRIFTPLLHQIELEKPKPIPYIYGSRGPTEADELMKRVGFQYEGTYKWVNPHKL

[11] = biological target: Induced myeloid leukemia cell differentiation protein Mcl-1 (Homo sapiens, UniProt Q07820); assay type: functional
Induced myeloid leukemia cell differentiation protein Mcl-1, sequence (Q07820 whole entry, the tested form may be a part): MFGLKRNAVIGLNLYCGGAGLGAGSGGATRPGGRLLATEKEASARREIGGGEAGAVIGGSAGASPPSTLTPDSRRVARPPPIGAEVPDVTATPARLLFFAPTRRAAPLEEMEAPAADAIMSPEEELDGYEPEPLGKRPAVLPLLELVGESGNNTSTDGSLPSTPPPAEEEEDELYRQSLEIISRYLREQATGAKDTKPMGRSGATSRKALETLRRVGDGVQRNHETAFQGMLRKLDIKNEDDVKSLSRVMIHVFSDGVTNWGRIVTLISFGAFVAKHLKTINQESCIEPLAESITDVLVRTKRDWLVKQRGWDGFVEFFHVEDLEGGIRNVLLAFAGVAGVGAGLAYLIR

[12] = biological target: T2, Oxysterols receptor LXR-beta (Homo sapiens, UniProt P55055); assay type: functional, cell-based;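 note: Cell-based luminescence dose-response assay of agonist activity at LXR, run as a confirmatory counterscreen to a daf-12 agonist screen; HEK293 cells with Gal4-LXR fusion and GAL4-driven luciferase reporter; agonist potency from rising luciferase signal of a Gal4-LXR reporter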
T2 sequence (P55055 whole entry): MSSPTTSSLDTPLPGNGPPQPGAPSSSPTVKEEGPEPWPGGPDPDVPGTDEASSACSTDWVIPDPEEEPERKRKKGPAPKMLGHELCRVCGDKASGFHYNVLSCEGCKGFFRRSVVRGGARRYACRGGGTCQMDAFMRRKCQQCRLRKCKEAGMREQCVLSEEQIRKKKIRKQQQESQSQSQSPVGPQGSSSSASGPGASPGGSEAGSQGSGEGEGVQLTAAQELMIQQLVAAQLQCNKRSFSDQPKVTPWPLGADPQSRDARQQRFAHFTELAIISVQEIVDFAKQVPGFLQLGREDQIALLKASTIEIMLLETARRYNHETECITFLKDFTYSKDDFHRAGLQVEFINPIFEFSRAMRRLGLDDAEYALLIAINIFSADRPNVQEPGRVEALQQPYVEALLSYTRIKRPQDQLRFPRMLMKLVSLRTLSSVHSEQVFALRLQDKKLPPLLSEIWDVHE

[13] = viability loss in THP-1 monocytes – THP-1 cells, cytotoxicity control for Vif-APOBEC3G degradation inhibitor project, dose response (AID 1117359); assay type: functional; conditions: THP-1
[14] = OVCAR8 cell viability loss – plate reader, dry powder samples, PAX8 project, dose response (AID 743197); assay type: functional, cell-based; conditions: OVCAR-8
[15] = biological target: Mitogen-activated protein kinase 10 (Homo sapiens, UniProt P53779); assay: Dose response biochemical screening assay for inhibitors of c-Jun N-Terminal Kinase 3 (JNK3). [Related pubchem assays: 746 ]
Mitogen-activated protein kinase 10, sequence (P53779 whole entry): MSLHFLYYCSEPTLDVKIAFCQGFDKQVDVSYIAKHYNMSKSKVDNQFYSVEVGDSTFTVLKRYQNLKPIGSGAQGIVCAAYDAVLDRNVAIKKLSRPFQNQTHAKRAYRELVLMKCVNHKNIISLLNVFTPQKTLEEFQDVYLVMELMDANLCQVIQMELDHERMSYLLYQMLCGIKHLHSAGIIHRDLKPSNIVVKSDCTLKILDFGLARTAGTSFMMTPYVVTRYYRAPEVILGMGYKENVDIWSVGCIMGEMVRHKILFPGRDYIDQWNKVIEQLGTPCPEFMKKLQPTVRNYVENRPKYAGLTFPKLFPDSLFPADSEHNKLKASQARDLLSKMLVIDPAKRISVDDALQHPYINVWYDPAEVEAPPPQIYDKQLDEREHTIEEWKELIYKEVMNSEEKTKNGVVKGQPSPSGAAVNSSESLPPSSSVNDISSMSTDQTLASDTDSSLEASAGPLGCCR

[16] = Luminescence Cell-Based Dose Confirmation HTS to Identify Activators of 5'UTR Stem-Loop Driven Alpha-Synuclein mRNA Translation in H4 Neuroglioblastoma Cells. [Related pubchem assays: 1829 (Project Summary), 1814 (Primary HTS)]; assay type: functional
[17] = Luminescence Cell-Based Dose Response HTS to Identify Activators of Luciferase Translation or Activity in H4 […] Cells. [Related pubchem assays: 1829 (Project Summary), 1814 (Primary HTS)]; assay type: functional
H4 = assay: Luminescence Cell-Based Dose Response HTS to Identify Activators of 5'UTR Stem-Loop Driven Prion Protein mRNA Translation in H4 Neuroglioblastoma Cells. [Related pubchem assays: 1829 (Project Summary), 1814 (Primary HTS)]; assay type: functional; conditions: Homo sapiens

Paired box protein Pax-8, sequence (Q06710 whole entry): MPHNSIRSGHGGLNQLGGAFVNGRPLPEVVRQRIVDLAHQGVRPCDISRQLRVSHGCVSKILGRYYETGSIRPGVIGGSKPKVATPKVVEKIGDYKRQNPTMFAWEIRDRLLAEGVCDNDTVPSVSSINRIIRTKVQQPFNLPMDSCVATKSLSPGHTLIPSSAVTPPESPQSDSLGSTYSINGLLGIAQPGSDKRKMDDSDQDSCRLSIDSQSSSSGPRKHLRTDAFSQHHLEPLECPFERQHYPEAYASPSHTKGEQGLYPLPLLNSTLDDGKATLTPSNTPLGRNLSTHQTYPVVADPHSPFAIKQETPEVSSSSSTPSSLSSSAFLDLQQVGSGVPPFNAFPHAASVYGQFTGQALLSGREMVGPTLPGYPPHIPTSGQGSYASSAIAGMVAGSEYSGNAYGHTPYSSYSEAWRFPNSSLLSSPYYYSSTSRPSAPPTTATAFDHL

In the case of `COc1ccccc1-c1ccc(OCCCN2CCC(C(O)(c3ccccc3)c3ccccc3)CC2)cc1`, the AC50 (Paired box protein Pax-8) is reported as 10.2 µM (active), the AC50 [1] is reported as 5.11 µM (active) and the AC50 [2] is reported as 6.44 µM (active). For the same compound, the AC50 [3] was 16.3 µM (active), the AC50 [4] was 28.1 µM (active) and the AC50 [5] was 18.1 µM (active). For the same compound, the AC50 [6] was 9.63 µM (active).
For `CC(C)(C)NC(=O)COc1ccc(CNc2ccc3[nH]c(O)nc3c2)cc1`, the EC50 [7] was > 112 µM (not active), the EC50 [8] was 17.9 µM (active) and the IC50 [9] was > 50 µM (not active). The IC50 [10] was 64.6 µM (inactive).
With `Cc1ccc(-n2nc3cc(C)c(N)cc3n2)cc1` the IC50 [11] was 7.02 µM (active), the IC50 [9] was > 50 µM (not active) and the EC50 [12] was > 67.5 µM (inactive). For the same compound, the EC50 (cells) was > 67.5 µM (inactive).
For `COc1ccc(Cc2nnc(NC(=O)CSc3ccccc3)s2)cc1`, the CC50 [13] was > 40 µM (active).
With `COc1ccccc1C#Cc1ccc2c(c1)O[C@H](CN(C)Cc1cccnc1)[C@H](C)CN([C@H](C)CO)S2(=O)=O` the AC50 (Paired box protein Pax-8) was 8.98 µM (active) and the AC50 [14] was 31.8 µM (active).
With `O=C1C(/C=N/c2ccccc2O)=C(O)c2ccccc21` the IC50 [15] was 23.1 µM (not active), the EC50 [12] was > 67.5 µM (inactive) and the EC50 (cells) was > 67.5 µM (inactive).
For `O=C(CNc1cccc2ccccc12)N/N=C/C=C/c1ccco1`, the IC50 [9] was > 50 µM (not active).
In the case of `Cc1nn(-c2ccccc2)c2c1C(O)n1c(nc3ccccc31)S2` (stereo unspecified), the EC50 [16] is reported as > 120 µM (not active), the EC50 [17] is reported as > 120 µM (not active) and the EC50 (H4) is reported as > 120 µM (not active). The IC50 [15] was > 93.1 µM (not active).
